This test concerns platelet aggregation. The test is described as follows: Ex vivo screening of oral GP IIb/IIIa inhibitors: inhibition of collagen-induced platelet aggregation in PRP after oral dosing in beagles. The conditions noted are these: beagle dogs, 5 mpk, collagen agonist; for inhibition in vivo at 5 mg/kg: Canis lupus familiaris, Platelet, n = 2, 32 hours post-dosing, read-out: Percent inhibition of platelet aggregation at 32 hour post-dosing; for % inhibition of platelet aggregation @ 26 hours: n = 2, 26 hours post-dosing. On the procedure: Beagles (8-13 kg, various sources) of either sex are dosed orally with compound in a gelatin capsule. Blood samples are drawn from the cephalic vein using a 23 ga infusion butterfly. Samples for platelet aggregation and drug concentration are taken prior to dosing and 0.5, 1, 2, 3, 5, 7 and 10 hours after dosing and periodically on subsequent days until inhibition of platelet aggregation is less than 30%. Animals are fasted, with ad lib access to water, overnight prior to dosing. For measurement of plasma concentration blood is drawn into a 3 ml tube containing 45 USP units of Na Heparin. Blood is centrifuged at 1700×g for 10 minutes, plasma is aspirated and frozen at -20° C. until analyzed by HPLC. For measurement of platelet aggregation, blood is drawn into 2 2.0 ml tubes containing 0.2 ml of 3.8% Na Citrate. Blood is centrifuged at 250×g for 6 minutes and the platelet rich plasma (PRP) is aspirated. The remaining blood is centrifuged at 1700×g for 10 minutes and platelet poor plasma (PPP) is aspirated. Platelet aggregation is performed in a Bio-Data PAP-4 aggregometer (Bio-Data Corp., Havertown, Pa.) using collagen (100 μg/ml final concentration; Helena Laboratories, Beaumont, Tex.) as the agonist. Briefly, baseline (100% aggregation) is set using PPP; PRP is incubated at 37° C. for one minute without stirring and one minute with stirring, agonist is added and aggregation is allowed to develop for 4 minutes. Percent aggregation post-dosing is compared to percent aggregation pre-dosing to determine percent inhibition.
Percent inhibition of platelet aggregation at 32 hour post-dosing in
beagle dogs (5 mpk, n = 2)

Where a name gives a salt, the structure may show the parent alone.

`N=C(N)c1ccc(N2CC[C@H](NC(=O)NCCC(=O)O)C2=O)cc1` [6(e), N-[[[(3S)-1-[4-(Aminoiminomethyl)phenyl]-2-oxo-3-pyrrolidinyl]amino]-carbonyl]-β-alanine trifluoroacetate, reference compound]: the “% inhibition of platelet aggregation @ 10 hours” value (n = 2, 10 hours post-dosing) is on record as 28%.

With `CCOC(=O)CCNC(=O)N[C@H]1CCN(c2ccc(C(N)=NOC(=O)OCC)cc2)C1=O` [Example 9, N-[[[(3S)-1-[4-[[[(ethoxycarbonyl)oxy]amino]iminomethyl]phenyl]-2-oxo-3-pyrrolidinyl]amino]carbonyl]-β-alanine ethyl ester], the inhibition in vivo at 5 mg/kg is 90%.

For `CCCOC(=O)CCNC(=O)N[C@H]1CCN(c2ccc(C(=N)NOC(=O)N3CCN(C)CC3)cc2)C1=O` [3(l), N-[[[(3S)-1-[4-[imino[[[(4-methyl-1-piperazinyl)carbonyl]oxy]amino]methyl]phenyl]-2-oxo-3-pyrrolidinyl]amino]carbonyl]-β-alanine propyl ester dihydrochloride], the inhibition in vivo at 5 mg/kg is 71%.

On to `CCCCOC(=O)CCNC(=O)N[C@H]1CCN(c2ccc(C(=N)NOC(=O)N(C)CCN(C)C)cc2)C1=O` [3(u), N-[[[(3S)-1-[4-(1-imino-5,8-dimethyl-4-oxo-3-oxa-2,5,8-triazanon-1-yl)phenyl]-2-oxo-3-pyrrolidinyl]amino]carbonyl]-β-alanine butyl ester dihydrochloride], for which the inhibition in vivo at 5 mg/kg turned out to be 63%.

As to `CC(C)OC(=O)CCNC(=O)N[C@H]1CCN(c2ccc(C(=N)NOC(=O)N3CCN(C)CC3)cc2)C1=O` [3(h), N-[[[(3S)-1-[4-[imino[[[(4-methyl-1-piperazinyl)carbonyl]oxy]amino]methyl]phenyl]-2-oxo-3-pyrrolidinyl]amino]carbonyl]-β-alanine 1-methylethyl ester dihydrochloride], the inhibition in vivo at 5 mg/kg was 56%.

Turning to `CCOC(=O)CCNC(=O)N[C@H]1CCN(c2ccc(C(=N)NOC(=O)OCC(Cl)(Cl)Cl)cc2)C1=O` [Example 10, N-[[[(3S)-1-[4-[imino[[[(2,2,2-trichloroethoxy)carbonyl]oxy]amino]methyl]phenyl]-2-oxo-3-pyrrolidinyl]amino]carbonyl]-β-alanine ethyl ester], the inhibition in vivo at 5 mg/kg was found to be 84%.

On to `CCOC(=O)CCNC(=O)N[C@H]1CCN(c2ccc(C(N)=NO)cc2)C1=O` [Example 1, N-[[[(3S)-1-[4-[(hydroxyamino)iminomethyl]phenyl]-2-oxo-3-pyrrolidinyl]amino]carbonyl]-β-alanine ethyl ester monohydrochloride], for which the inhibition in vivo at 5 mg/kg was 95%.

Regarding `CC(C)OC(=O)CCNC(=O)N[C@H]1CCN(c2ccc(C(=N)NOC(=O)NCCN(C)C)cc2)C1=O` [3(j), N-[[[(3S)-1-[4-(1-imino-8-methyl-4-oxo-3-oxa-2,5,8-triazanon-1-yl)phenyl]-2-oxo-3-pyrrolidinyl]amino]carbonyl]-β-alanine 1-methylethyl ester monoacetate], the inhibition in vivo at 5 mg/kg came to 34%.

On to `CN1CCN(C(=O)ONC(=N)c2ccc(N3CC[C@H](NC(=O)NCCC(=O)OC4CCCCC4)C3=O)cc2)CC1` [3(cc), N-[[[(3S)-1-[4-[imino[[[(4-methyl-1-piperazinyl)carbonyl]oxy]amino]methyl]phenyl]-2-oxo-3-pyrrolidinyl]amino]carbonyl]-β-alanine cyclohexyl ester dihydrochloride monohydrate], for which the inhibition in vivo at 5 mg/kg was 22%.

For the molecule `CC(C)COC(=O)CCNC(=O)N[C@H]1CCN(c2ccc(C(=N)NOC(=O)N(C)CCN(C)C)cc2)C1=O` [3(q), N-[[[(3S)-1-[4-(1-imino-5,8-dimethyl-4-oxo-3-oxa-2,5,8-triazanon-1-yl)phenyl]-2-oxo-3-pyrrolidinyl]amino]carbonyl]-β-alanine 2-methylpropyl ester dihydrochloride], the inhibition in vivo at 5 mg/kg turned out to be 57%.

With `NC(=O)ON=C(N)c1ccc(N2CC[C@H](NC(=O)NCCC(=O)OC3CCCCC3)C2=O)cc1` [5(h), N-[[[(3S)-1-[4-[[[(aminocarbonyl)oxy]amino]iminomethyl]phenyl]-2-oxo-3-pyrrolidinyl]amino]carbonyl]-β-alanine cyclohexyl ester], the inhibition in vivo at 5 mg/kg came out at 28%.

Regarding `CC(C)OC(=O)CCNC(=O)N[C@H]1CCN(c2ccc(C(N)=NOC(=O)N(C)C)cc2)C1=O` [4(b), N-[[[(3S)-1-[4-[[[[(dimethylamino)carbonyl]oxy]amino]iminomethyl]phenyl]-2-oxo-3-pyrrolidinyl]amino]carbonyl]-β-alanine 1-methylethyl ester], the inhibition in vivo at 5 mg/kg was determined as 20%.

With `COC(=O)CCNC(=O)N[C@H]1CCN(c2ccc(C(=N)NOC(=O)N3CCN(C)CC3)cc2)C1=O` [Example 3, N-[[[(3S)-1-[4-[imino[[[(4-methyl-1-piperazinyl)-carbonyl]oxy]amino]-methyl]phenyl]-2-oxo-3-pyrrolidinyl]amino]carbonyl]-β-alanine methyl ester], the inhibition in vivo at 5 mg/kg is 66%.

With `COC(=O)CCNC(=O)N[C@H]1CCN(c2ccc(C(N)=NOC(=O)N(C)C)cc2)C1=O` [Example 4, N-[[[(3S)-1-[4-[[[[(dimethylamino)carbonyl]oxy]amino]iminomethyl]phenyl]-2-oxo-3-pyrrolidinyl]amino]carbonyl]-β-alanine methyl ester], the inhibition in vivo at 5 mg/kg amounted to 68%.

With `CCOC(=O)CCNC(=O)N[C@H]1CCN(c2ccc(C(=N)NOC(=O)N(C)CCCN(C)C)cc2)C1=O` [3(g), N-[[[(3S)-1-[4-(1-imino-5,9-dimethyl-4-oxo-3-oxa-2,5,9-triazadec-1-yl)phenyl]-2-oxo-3-pyrrolidinyl]amino]carbonyl]-β-alanine ethyl ester dihydrochloride], the inhibition in vivo at 5 mg/kg worked out at 69%.

Turning to `COC(=O)CCNC(=O)N[C@H]1CCN(c2ccc(C(N)=NO)cc2)C1=O` [Example 1(a), N-[[[(3S)-1-[4-[(hydroxyamino)iminomethyl]phenyl]-2-oxo-3-pyrrolidinyl]amino]carbonyl]-β-alanine methyl ester], the inhibition in vivo at 5 mg/kg was determined as 85%.

Take `CCOC(=O)CCNC(=O)N[C@H]1CCN(c2ccc(C(=N)NC(=O)c3ccccc3)cc2)C1=O` [Example 7, N-[[[3(S)-1-[4-[imino[(phenylcarbonyl)amino]methyl]phenyl]-2-oxo-3-pyrrolidinyl]amino]carbonyl]-β-alanine ethyl ester]: the inhibition in vivo at 5 mg/kg was determined as 53%.

For `CCCOC(=O)CCNC(=O)N[C@H]1CCN(c2ccc(C(N)=NO)cc2)C1=O` [1(c), N-[[[(3S)-1-[4-[(hydroxyamino)iminomethyl]phenyl]-2-oxo-3-pyrrolidinyl]amino]carbonyl]-β-alanine propyl ester monohydrochloride], the inhibition in vivo at 5 mg/kg worked out at 94%.

On to `CC(C)OC(=O)CCNC(=O)N[C@H]1CCN(c2ccc(C(N)=NO)cc2)C1=O` [1(b), N-[[[(3S)-1-[4-[(hydroxyamino)iminomethyl]phenyl]-2-oxo-3-pyrrolidinyl]amino]carbonyl]-β-alanine 1-methylethyl ester monohydrochloride], for which the inhibition in vivo at 5 mg/kg amounted to 71%.

Take `COC(=O)CCNC(=O)N[C@H]1CCN(c2ccc(C(=N)NOC(=O)N(C)CCN(C)C)cc2)C1=O.Cl` [3(a), N-[[[(3S)-1-[4-(1-imino-5,8-dimethyl-4-oxo-3-oxa-2,5,8-triazanon-1-yl)phenyl]-2-oxo-3-pyrrolidinyl]amino]carbonyl]-β-alanine methyl ester monohydrochloride]: the “% inhibition of platelet aggregation @ 26 hours” value came out at 33%.

With `CCOC(=O)CCNC(=O)N[C@H]1CCN(c2ccc(C(=N)NOC(=O)N3CCN(C)CC3)cc2)C1=O.Cl.Cl` [3(d), N-[[[(3S)-1-[4-[imino[[[(4-methyl-1-piperazinyl)carbonyl]oxy]amino]methyl]phenyl]-2-oxo-3-pyrrolidinyl]amino]carbonyl]-β-alanine ethyl ester dihydrochloride], the “% inhibition of platelet aggregation @ 26 hours” value worked out at 88%.

On to `CCCOC(=O)CCNC(=O)N[C@H]1CCN(c2ccc(C(=N)NOC(=O)NCCN(C)C)cc2)C1=O` [3(n), N-[[[(3S)-1-[4-(1-imino-8-methyl-4-oxo-3-oxa-2,5,8-triazanon-1-yl)phenyl]-2-oxo-3-pyrrolidinyl]amino]carbonyl]-β-alanine propyl ester monoacetate monohydrate], for which the inhibition in vivo at 5 mg/kg came to 73%.

For `CCOC(=O)CCNC(=O)N[C@H]1CCN(c2ccc(C(N)=NOC(N)=O)cc2)C1=O` [5(a), N-[[[(3S)-1-[4-[[[(aminocarbonyl)oxy]amino]iminomethyl]phenyl]-2-oxo-3-pyrrolidinyl]amino]carbonyl]-β-alanine ethyl ester], the inhibition in vivo at 5 mg/kg came to 82%.

In the case of `CCCCCOC(=O)CCNC(=O)N[C@H]1CCN(c2ccc(C(=N)NOC(=O)N3CCN(C)CC3)cc2)C1=O` [3(ff), N-[[[(3S)-1-[4-[imino[[[(4-methyl-1-piperazinyl)carbonyl]oxy]amino]methyl]-phenyl]-2-oxo-3-pyrrolidinyl]amino]carbonyl]-β-alanine pentyl ester dihydrochloride], the inhibition in vivo at 5 mg/kg came out at 70%.
